What was measured:
human orexin-1 receptor = molecular target: T1, human orexin-1 receptor (Homo sapiens, UniProt O43613); assay: Intracellular calcium measurement (FLIPR Tetra), orexin receptor antagonistic activity, OX1; type: cell-based; conditions: CHO cells expressing human orexin-1 receptor, 3 nM orexin-A
T1 construct: expressed in transfected cells; host or cells: CHO (Chinese hamster ovary) cells, kept under G418 selection
T1 sequence (O43613 1-425): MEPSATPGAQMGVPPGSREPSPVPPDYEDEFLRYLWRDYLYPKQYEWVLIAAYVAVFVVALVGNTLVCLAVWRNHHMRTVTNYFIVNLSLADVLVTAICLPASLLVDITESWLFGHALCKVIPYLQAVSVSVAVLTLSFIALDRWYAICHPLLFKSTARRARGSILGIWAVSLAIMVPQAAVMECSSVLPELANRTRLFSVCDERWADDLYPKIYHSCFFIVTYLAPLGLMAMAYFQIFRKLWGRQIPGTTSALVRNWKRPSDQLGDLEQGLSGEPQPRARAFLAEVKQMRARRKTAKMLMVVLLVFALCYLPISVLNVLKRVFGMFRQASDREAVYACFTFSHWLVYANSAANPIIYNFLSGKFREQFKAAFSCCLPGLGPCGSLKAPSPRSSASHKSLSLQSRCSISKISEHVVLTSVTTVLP
Protocol: (§1) The orexin receptor antagonistic activity of the compounds of formula (I) is determined in accordance with one of the following experimental methods.
(§2) Chinese hamster ovary (CHO) cells expressing the human orexin-1 receptor and the human orexin-2 receptor, respectively, are grown in culture medium (Ham F-12 with L-Glutamine) containing 300 μg/ml G418, 100 U/ml penicillin, 100 μg/ml streptomycin and 10% heat inactivated fetal calf serum (FCS). The cells are seeded at 20,000 cells/well into 384-well black clear bottom sterile plates (Greiner). The seeded plates are incubated overnight at 37° C. in 5% CO2.
(§3) Human orexin-A as an agonist is prepared as 1 mM stock solution in MeOH:water (1:1), diluted in HBSS containing 0.1% bovine serum albumin (BSA), NaHCO3: 0.375 g/l and 20 mM HEPES for use in the assay at a final concentration of 3 nM. Antagonists are prepared as 10 mM stock solution in DMSO, then diluted in 384-well plates, first in DMSO, then in HBSS containing 0.1% bovine serum albumin (BSA), NaHCO3: 0.375 g/l and 20 mM HEPES.
(§4) On the day of the assay, 50 μl of staining buffer (HBSS containing 1% FCS, 20 mM HEPES, NaHCO3: 0.375 g/l, 5 mM probenecid (Sigma) and 3 μM of the fluorescent calcium indicator fluo-4 AM (1 mM stock solution in DMSO, containing 10% pluronic) is added to each well.
(§5) The 384-well cell-plates are incubated for 50 min at 37° C. in 5% CO2 followed by equilibration at RT for 30-120 min before measurement.
(§6) Within the Fluorescent Imaging Plate Reader (FLIPR Tetra, Molecular Devices), antagonists are added to the plate in a volume of 10 μl/well, incubated for 10 min and finally 10 μl/well of agonist is added. Fluorescence is measured for each well at 1 second intervals, and the height of each fluorescence peak is compared to the height of the fluorescence peak induced by 3 nM orexin-A with vehicle in place of antagonist. For each antagonist, the IC50 value (the concentration of compound needed to inhibit 50% of the agonistic response) is determined and may be normalized using the obtained IC50 value of a on-plate reference compound (normalized values in Table 1 are indicated by an asterisk *). With the FLIPR Tetra, two different conditions (conditions A and conditions B) were used, differing in adjustment of pipetting speed and cell splitting regime. The calculated IC50 values of the compounds may fluctuate depending on the daily cellular assay performance. Fluctuations of this kind are known to those skilled in the art.

human orexin-2 receptor = molecular target: T2, human orexin-2 receptor (Homo sapiens, UniProt O43614); assay: Intracellular calcium measurement (FLIPR Tetra), orexin receptor antagonistic activity, OX2; type: cell-based; conditions: CHO cells expressing human orexin-2 receptor, 3 nM orexin-A
T2 construct: expressed in transfected cells; host or cells: CHO (Chinese hamster ovary) cells, kept under G418 selection
T2 sequence (O43614 1-444): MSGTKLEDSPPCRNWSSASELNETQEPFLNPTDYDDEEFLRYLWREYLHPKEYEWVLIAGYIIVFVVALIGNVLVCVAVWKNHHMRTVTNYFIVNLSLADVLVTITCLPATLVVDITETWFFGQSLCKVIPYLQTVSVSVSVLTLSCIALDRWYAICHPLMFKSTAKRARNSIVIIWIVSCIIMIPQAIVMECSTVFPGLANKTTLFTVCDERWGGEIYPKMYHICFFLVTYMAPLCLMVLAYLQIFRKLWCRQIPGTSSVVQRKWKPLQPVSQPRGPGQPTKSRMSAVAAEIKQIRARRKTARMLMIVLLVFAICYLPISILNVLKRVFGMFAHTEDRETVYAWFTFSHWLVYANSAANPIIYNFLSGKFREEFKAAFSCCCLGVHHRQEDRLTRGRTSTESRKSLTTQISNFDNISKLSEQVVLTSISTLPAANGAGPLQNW
Protocol: as §1, §2, §3, §4, §5, §6

[1] = conditions B, normalized (*) using IC50 of on-plate reference compound

| Compound | IC50 (human orexin-1 receptor; [1]) | IC50 (human orexin-2 receptor; [1]) | IC50 (human orexin-1 receptor; conditions B) | IC50 (human orexin-2 receptor; conditions B) | further results |
| --- | --- | --- | --- | --- | --- |
| CC(C)N(CCc1c[nH]c2ccc(F)cc12)C(=O)c1nccnc1-c1ccccc1 [Example 287, 3-Phenyl-pyrazine-2-carboxylic acid [2-(5-fluoro-1H-indol-3-yl)-ethyl]-isopropyl-amide] | 2440 nM | 585 nM |  |  |  |
| COc1ccc(-c2cccnc2C(=O)N(CCc2c[nH]c3cc(F)ccc23)CC2CC2)cn1 [Example 361] | 35 nM | 60 nM |  |  |  |
| O=C(c1ncccc1-c1cnc2ccccc2c1)N(CCc1c[nH]c2ccc(F)cc12)CC1CC1 [Example 404, 3-Quinolin-3-yl-pyridine-2-carboxylic acid cyclopropylmethyl-[2-(5-fluoro-1H-indol-3-yl)-ethyl]-amide] | 58 nM | 12 nM |  |  |  |
| COc1cccc(-c2oc(C)nc2C(=O)N(CCc2ccc(OC)c(OC)c2)CC2CC2)c1 [Example 42, 5-(3-Methoxy-phenyl)-2-methyl-oxazole-4-carboxylic acid cyclopropylmethyl-[2-(3,4-dimethoxy-phenyl)-ethyl]-amide] |  |  |  |  | IC50 (human orexin-1 receptor; conditions A): 1010 nM; IC50 (human orexin-2 receptor; conditions A): 20 nM |
| COc1ccc(CCN(CC2CC2)C(=O)c2nc(N)sc2-c2cccc(C)c2)cc1Br [Example 163, 2-Amino-5-m-tolyl-thiazole-4-carboxylic acid [2-(3-bromo-4-methoxy-phenyl)-ethyl]-cyclopropylmethyl-amide] |  |  | 81 nM | 18 nM |  |
| Cc1cccc(-c2sc(N)nc2C(=O)N(CCc2c[nH]c3cccc(F)c23)CC2CC2)c1 [Example 231, 2-Amino-5-m-tolyl-thiazole-4-carboxylic acid cyclopropylmethyl-[2-(4-fluoro-1H-indol-3-yl)-ethyl]-amide] |  |  | 9 nM | 27 nM |  |
| CCCN(CCc1c[nH]c2ccc(F)cc12)C(=O)c1nccnc1-c1ccc(C)c(C)c1 [Example 292, 3-(3,4-Dimethyl-phenyl)-pyrazine-2-carboxylic acid [2-(5-fluoro-1H-indol-3-yl)-ethyl]-propyl-amide] | 163 nM | 10 nM |  |  |  |
| COc1ccc2[nH]cc(CC(C)N(CC3CC3)C(=O)c3nc(C)sc3-c3ccc(OC)nc3)c2c1 (racemic) [Example 385] | 23 nM | 25 nM |  |  |  |
| CCCN(CCc1ccc(OC)c(OC)c1)C(=O)c1nc(N)sc1-c1cccc(C)c1 [Example 110, 2-Amino-5-m-tolyl-thiazole-4-carboxylic acid [2-(3,4-dimethoxy-phenyl)-ethyl]-propyl-amide] |  |  | 21 nM | 2 nM |  |
| COc1ccc(CCN(CC(F)(F)F)C(=O)c2nc(N)sc2-c2cccc(C)c2)cc1OC [Example 119, 2-Amino-5-m-tolyl-thiazole-4-carboxylic acid [2-(3,4-dimethoxy-phenyl)-ethyl]-(2,2,2-trifluoro-ethyl)-amide] |  |  | 149 nM | 4 nM |  |
| COc1ccc(CCN(CCN(C)C)C(=O)c2nc(N)sc2-c2cccc(C)c2)cc1OC [Example 130, 2-Amino-5-m-tolyl-thiazole-4-carboxylic acid [2-(3,4-dimethoxy-phenyl)-ethyl]-(2-dimethylamino-ethyl)-amide] |  |  | > 10000 nM | 279 nM |  |
| COc1ccc(CCN(CC2CC2)C(=O)c2snnc2-c2ccccc2)cc1OC [Example 53, 4-Phenyl-[1,2,3]thiadiazole-5-carboxylic acid cyclopropylmethyl-[2-(3,4-dimethoxy-phenyl)-ethyl]-amide] |  |  |  |  | IC50 (human orexin-1 receptor; conditions A): 8670 nM; IC50 (human orexin-2 receptor; conditions A): 81 nM |
| COc1ccc(CCN(CC2CC2)C(=O)c2nc(C3CC3)sc2-c2ccccc2)cc1OC [Example 22, 2-Cyclopropyl-5-phenyl-thiazole-4-carboxylic acid cyclopropylmethyl-[2-(3,4-dimethoxy-phenyl)-ethyl]-amide] |  |  |  |  | IC50 (human orexin-1 receptor; conditions A): 570 nM; IC50 (human orexin-2 receptor; conditions A): 35 nM |
| Cc1nc(C(=O)N(CCc2c[nH]c3ccc(F)cc23)CC2CC2)c(-c2ccc(CO)nc2)s1 [Example 423, 5-(6-Hydroxymethyl-pyridin-3-yl)-2-methyl-thiazole-4-carboxylic acid cyclopropylmethyl-[2-(5-fluoro-1H-indol-3-yl)-ethyl]-amide] | 1610 nM | 53 nM |  |  |  |
| CCOc1ccc(CCN(CC2CC2)C(=O)c2nc(C)sc2-c2ccc(C)c(C)c2)cc1OC [Example 199, 5-(3,4-Dimethyl-phenyl)-2-methyl-thiazole-4-carboxylic acid cyclopropylmethyl-[2-(4-ethoxy-3-methoxy-phenyl)-ethyl]-amide] |  |  | 404 nM | 9 nM |  |
| Cc1nc(C(=O)N(CCc2ccc3c(c2)OCCO3)CC2CC2)c(-c2ccc(C)c(C)c2)s1 [Example 198, 5-(3,4-Dimethyl-phenyl)-2-methyl-thiazole-4-carboxylic acid cyclopropylmethyl-[2-(2,3-dihydro-benzo[1,4]dioxin-6-yl)-ethyl]-amide] |  |  | 1070 nM | 65 nM |  |
| COc1ccc(CCN(CC2CC2)C(=O)c2cccnc2-c2cccc(C)c2)cc1OC [Example 394, N-Cyclopropylmethyl-N-[2-(3,4-dimethoxy-phenyl)-ethyl]-2-m-tolyl-nicotinamide] |  |  | 156 nM | 4 nM |  |
| Cc1cccc(-c2sc(CN(C)C)nc2C(=O)N(CCc2c[nH]c3ccc(F)cc23)CC2CC2)c1 [Example 279, 2-Dimethylaminomethyl-5-m-tolyl-thiazole-4-carboxylic acid cyclopropylmethyl-[2-(5-fluoro-1H-indol-3-yl)-ethyl]-amide] | 5620 nM | 283 nM |  |  |  |
| COc1cccc(-c2cccnc2C(=O)N(CCc2ccc(OC)c(OC)c2)CC2CC2)c1 [Example 393, 3-(3-Methoxy-phenyl)-pyridine-2-carboxylic acid cyclopropyl-methyl-[2-(3,4-dimethoxy-phenyl)-ethyl]-amide] |  |  | 108 nM | 3 nM |  |
| Cc1nc(C(=O)N(CCc2c[nH]c3ccc(F)cc23)CC2CC2)c(-c2ccc(C)c(F)c2F)s1 [Example 273, 5-(2,3-Difluoro-4-methyl-phenyl)-2-methyl-thiazole-4-carboxylic acid cyclopropylmethyl-[2-(5-fluoro-1H-indol-3-yl)-ethyl]-amide] | 407 nM | 64 nM |  |  |  |
| O=C(c1nccnc1-c1ccccc1)N(CCO)CCc1c[nH]c2ccc(F)cc12 [Example 289, 3-Phenyl-pyrazine-2-carboxylic acid [2-(5-fluoro-1H-indol-3-yl)-ethyl]-(2-hydroxy-ethyl)-amide] | > 4270 nM | 627 nM |  |  |  |
| COC(=O)CN(CCc1c[nH]c2ccccc12)C(=O)c1nc(C)sc1-c1cccc(Br)c1 [Example 590, {[5-(3-Bromo-phenyl)-2-methyl-thiazole-4-carbonyl]-[2-(1H-indol-3-yl)-ethyl]-amino}-acetic acid methyl ester] | 468 nM | 10 nM |  |  |  |
